# Patent US12338229B2, “Small molecule stimulators of steroid receptor coactivator-3 and methods of their use as cardioprotective and/or vascular regenerative agents” (BAYLOR COLLEGE OF MEDICINE, priority 2018, dated 2025)
# Key:
# [1] = system: chorioallantoic membrane (CAM) of chicken eggs; test: CAM angiogenesis assay with drug treated mouse embryonic fibroblasts; format: in vivo; conditions: MEFs pre-treated with 0.6 μM for 24 hours
# Experimental: Angiogenesis Assay with drug treated mouse embryonic fibroblasts (MEFs). Five to seven day old SPF certified fertilized chicken eggs (white leghorn) were used to access the chorioallantoic membrane (CAM). Mouse embryonic fibroblasts (MEFs) were treated with 0.6 μM MCB-613 for 24 hours. Post treatment, two million MEFs were suspended in 60 μL of PBS containing magnesium and calcium and 40 μL of Matrigel (2M/egg) (Corning Inc.; Corning, NY). The MEFs were then mixed well by pipetting and transferred to the surface of the CAM. The vessel area on the CAM was monitored on a daily basis. Vehicle controls were maintained throughout the experiment. MEFs were allowed to grow on the CAM surface for four days at the end of which an image thresholding method (ImageJ) was used to quantify total vessel area on the CAM. Percent growth in vessel area was then compared across control and treated eggs (MEF treated versus untreated). n=6 eggs per condition.
# [2] = system: cardiac immune cells; test: Flow cytometry cardiac immune phenotyping post-MI; format: in vivo, mice; conditions: 24 hours post-MI, vs control
# Experimental: Flow Cytometry and Cardiac Immune Phenotyping. Hearts and spleens isolated from control and MCB-613 treated mice 24 hours post-MI or post-sham surgery were digested in digestion buffer: 500 μL of DNAse I (10 mg/ml), 500 μl Collagenase II (50 mg/ml) into 4 ml (enough for approx. 12 spleens @ 1x) RPMI 1640. Cells were placed on a GentleMacs dissociator and run on “IMPC_step2” twice and incubated at 25° C. for 15 minutes. The “IMPC_step2” program was repeated and the samples were incubated at 25° C. an additional 15 minutes followed by another round of the “IMPC_step2” program. Then, 400 μL of 4° C. Stopping Buffer (1x PBS, 0.1M EDTA) was added to each sample and centrifuged at ˜100 g for one second to collect liquid at the bottom of tube. Samples were filtered through mesh filter caps into 50 mL conical tubes. The tubes were then washed with 1 mL FACs buffer which was also then passed through the filter. Heart preps were more viscous and were washed with 20 mL cold filtered saline. Samples were centrifuged at 500 g for 6 minutes. Supernatant was discarded and the pellet suspended in 1 mL 4° C. FACS buffer. Following red blood cell (RBC) lysis and blocking, single cell suspensions were stained with an immune cell panel and quantified using an LSR II flow cytometer. Then, 500,000 live events were counted for spleen controls and the entire tube of heart cells was recorded and analyzed.
# [3] = system: chorioallantoic membrane (CAM) of chicken eggs; test: Chick egg CAM angiogenesis assay, topical drug; format: in vivo; conditions: 0.6 μM applied directly to chick eggs
# Experimental: Angiogenesis assay for small molecule stimulator treatments. Five to seven day old specific-pathogen-free (SPF) certified fertilized chicken eggs (white leghorn) were used to access the chorioallantoic membrane (CAM). The total vessel area on the CAM was measured using images obtained prior to application of the drug. MCB-613 (100 μL) at a concentration of 0.6 μM was topically applied onto the surface of the CAM. The vessel area on the CAM was monitored on a daily basis following daily application of the drug. Vehicle controls were maintained throughout the experiment. Treatments were continued for four days at the end of which an image thresholding method (ImageJ) was used to quantify total vessel area on the CAM. Percent growth in vessel area was compared for control and treated eggs. n=6 eggs per condition. This experiment was repeated three times.
# [4] = system: bone marrow granulocytes; test: qPCR of bone marrow granulocytes post-MI; format: in vivo, mice; conditions: bone marrow granulocytes 24 hours post-MI
# Experimental: RNA isolation and qPCR. Total RNA was isolated from cells using the Qiagen RNA isolation kit. cDNA was prepared with the VILO master mix reagent. qPCR analysis was carried out using the Taqman kit with primers for Tlr7, Lcn2 and 18s.
# Granulocyte isolation. Bone marrow cells were isolated from the rear legs of mice treated with control or MCB-613 for 24 hours. Rear legs were removed and placed in ice-cold Hanks balanced salt solution (HBSS) (without Ca/Mg) plus 2% FBS. Both ends of the bone were cut and the bone marrow was flushed with ice cold HBSS with 2% FBS using a 26G needle. Clumps were broken up with an 18G needle and filtered through a 70 μm filter and centrifuged at 400 g for 10 min at 4° C. The pellet was suspended in RBC lysis buffer (BD Biosciences Pharmigen; San Diego, CA) and incubated at room temperature for two minutes. HBSS buffer (8 mL) was added and spun at 400 g for 10 mins at 4° C. Viable cells were counted by trypan blue exclusion and bone marrow granulocytes were isolated using a mouse Neutrophil Isolation Kit from Miltenyi Biotec (Bergisch Gladbach, Germany).
# [5] = system: mouse hearts after myocardial infarction; test: Metabolomic profiling of hearts post-MI; format: in vivo, mice
# Experimental: Metabolomic profiling. Hearts from 4 control and 4 MCB-613-treated mice were isolated 24 hours post-MI, perfused with 10 mM KCl, snap frozen in liquid nitrogen and stored at −80° C. 10 mgs of tissue was analyzed for fatty acids and carnitines normalized to 3 normal liver control samples. Fatty acids were normalized by Internal Standard L-Tryptophan and carnitines normalized by Internal Standard L-Zeatine.
structure (smiles),measurement,setting,value
CCC1C/C(=C\c2cccnc2)C(=O)/C(=C/c2cccnc2)C1 (stereo not shown) [MCB-613],angiogenesis (vessel area on CAM),[1],promoted robust angiogenesis
same,composition of cardiac immune cells (FACS),[2],"significant decrease in B cells, a trend for decreased monocytes and no change in the fraction of granulocytes"
same,angiogenesis (vessel area on CAM),[3],stimulated angiogenesis in vivo
same,Tlr7 and Lcn2 mRNA expression in granulocytes,[4],Increased expression of Tlr7 and Lcn2
same,cardioprotective carnitine metabolites,[5]; mouse hearts 24 hours post-MI,increases cardioprotective carnitine metabolites
same,β-oxidation of long-chain fatty acids,[5]; mouse hearts 24 hours post-MI,increases β-oxidation of long-chain fatty acids
same,methylglutaryl carnitine,[5]; mouse hearts post-MI,decreases methylglutaryl carnitine
